Measurements from patent EP4782431A1 (Suzhou Merna Therapeutics Co. Ltd, priority 2023, dated 2025).

How the values were obtained:
[1] = test system: kinase inhibitor-induced mouse model with hand-foot skin reaction; experiment: kinase inhibitor-induced mouse model with hand-foot skin reaction; type: in vivo, ICR mice; conditions: for expression level of cytokine IL-1β in the skin tissues of the hind limb toes of the mice / infiltration of inflammatory cells / thickening of the epidermal layer and the stratum corneum in the skin tissues: 3% ointment topical or nicotinamide 100 mg/kg oral; for infiltration of inflammatory cells / thickening of the epidermal layer and the stratum corneum in the skin tissues / swelling of the toes caused by the modeling drugs: sorafenib and osimertinib models; for swelling of the toes caused by the modeling drugs: compound of formula (I) 3% ointment topical or nicotinamide 100 mg/kg oral, once daily 16 days
Text: After adaptive feeding for 7 days, SPF-grade ICR mice (male, 5-6 weeks old, with a body weight of approximately 35 g) were randomly divided into groups, including a blank control group (6 mice), a sorafenib modeling group (6 mice), an osimertinib modeling group (6 mice), a sorafenib + compound of formula (I) group (6 mice), an osimertinib + compound of formula (I) group (6 mice), a sorafenib + nicotinamide group (6 mice), and an osimertinib + nicotinamide group (6 mice). The groups were respectively administered corresponding modeling drugs by oral gavage (sorafenib at 100 mg/kg and osimertinib at 10 mg/kg) once daily; and the blank control group was administered an equivalent volume of normal saline. After administration with the chemotherapeutic drugs for 2 weeks, the ointments containing the compound of formula (I) (at a compound content of 3%) used in Example 10 were respectively applied topically in the groups, or nicotinamide was orally administered (100 mg/kg) once daily continuously for 16 days.
Measurement of the degree of swelling of toes: The degree of swelling of hind limb toes of the mice was measured using a toe swelling tester (KW-7C, Nanjing Calvin Biotechnology Co., Ltd.) before administration with the modeling drugs, after administration with the modeling drugs for 2 weeks, and before sacrifice, respectively. Before measurement, ankle joints of hind feet of the mice were marked at same positions before administration, after administration for 2 weeks, and before sacrifice. During measurement, water was properly located at the same level as the marked positions, and numerical values were recorded after becoming stable.
Pathological staining of skin tissues: Skin tissue samples were selected from hind limb toes of the mice and placed in 4% paraformaldehyde for fixation at room temperature for 4 hours. Then, the tissues were taken out and rinsed with running water for several hours. The samples were subjected to dehydration treatment with 70%, 80%, and 90% ethanol solutions, followed by treatment with a mixed solution of equal amounts of absolute alcohol and xylene for 15 minutes, and then permeabilized twice with a xylene solution for 15 minutes each time until the samples became transparent. The samples were placed in a mixture of half xylene and half paraffin for soaking for 15 minutes, and then, paraffin I and paraffin II were added for wax penetration for one hour, respectively. After embedding with paraffin, the samples were sectioned, baked, dewaxed, and hydrated. Then, the hydrated sections were placed in a hematoxylin solution (ZSGB-BIO, article No. 23041001) for staining for 3 minutes, and a differentiation solution of hydrochloric acid in ethanol was added for differentiation for 15 seconds. After rinsing with water, a Scott bluing solution (Servicebio, article No. 20230801) was added for bluing for 15 seconds. After rinsing with running water, the sections were stained with an eosin solution (Solarbio, article No. 33535) for 3 minutes, rinsed with running water, dehydrated, permeabilized, sealed, and inspected under a microscope.
Immunohistochemical staining: After baking, dewaxing, and hydration, paraffin sections of skin tissues of hind limb toes of the mice were subjected to antigen retrieval using a 0.2 M citric acid buffer solution (containing 1.534 g of citric acid, 3.1 g of sodium citrate, and 100 mL of distilled water, pH 4.7). Endogenous […] was removed using 3% hydrogen peroxide (Shandong Annjet High-Tech Disinfection Technology Co., Ltd., article No. 20290902), and the sections were incubated at room temperature for 10 minutes and then fully rinsed with a PBS buffer solution (containing 8 g of NaCl, 0.2 g of KCl, 1.44 g of Na2HPO4, and 1 M HCl, pH 7.4). The sections were permeabilized with 0.5% Triton-X-100 (AmyJet Scientific, article No. A-CSH436-100 mL), respectively permeabilized with mouse anti-IL-1β and rabbit IL-8 for 10 minutes, and not permeabilized with rabbit anti-IL-6. […]

[2] = test system: rat models with a hand-foot skin reaction; experiment: rat models with a hand-foot skin reaction; type: in vivo, SD rats; conditions: for Incidence rate Left paw: once daily 30 days; for Incidence rate Right paw: right paw with blank matrix ointment, 30 days
Experimental: After adaptive feeding for one week, SD rats (with a body weight of approximately 200 g) were randomly divided into groups with balanced body weight, with 12 rats in each group. Modeling drugs (including sorafenib, erlotinib, afatinib, and osimertinib) were respectively dissolved in a solution containing 5% of DMSO, 45% of PEG400, and 50% of H2O, and the modeling drugs were diluted to required concentrations and then administered once daily by gavage at doses shown in Table 3. After administration by gavage for 1 hour, 0.05 g of ointments containing different mass proportions of test compounds were evenly applied to left paws of the rats, a blank matrix ointment was applied to right paws of the rats to serve as a self-control, and no ointment was applied to the rats in a blank control group. After drug application, four limbs were continuously immobilized for 2 hours, then wiped with clean water to remove the residual drugs, removed from immobilization, and restored to free movement. The modeling drugs, the blank matrix ointment, and the ointments containing the test compounds were all administered once daily. After continuous administration for 30 days, the rats were euthanized, and paw plantar skin tissues were collected, fixed in 10% neutral formalin, […]. The ointments for the test compounds were prepared by mixing the compounds, white beeswax, white petrolatum, and light liquid paraffin in specific ratios (weight ratios of 3 ointments were respectively 1:18:58:23, 3:18:57:22, and 10:20:40:30). The blank matrix ointment was prepared by mixing white beeswax, white petrolatum, and light liquid paraffin in a specific ratio (weight ratio of 18:60:22).
Tissue staining: After dewaxing and rehydration, the paw plantar skin tissue sections of the above rats were stained in a hematoxylin solution for several minutes, cleaned, and placed in 1% acid alcohol for soaking until the sections faded to light blue-red. After cleaning with running water for 5 minutes, the sections were stained with eosin for 2-3 minutes, cleaned to remove excess dyes, dehydrated, then permeabilized by adding xylene for several minutes, and sealed and fixed with a neutral resin. The stratum corneum was observed under an optical microscope, and the thickness of the epidermal stratum corneum was measured using Dmetrix software.
Immunohistochemical staining: After dewaxing and hydration, the paw plantar skin tissue sections of the above rats were incubated with 3% H2O2 at room temperature for 30 minutes and blocked with 10% goat serum for 30 minutes after antigen retrieval. A KRT1 antibody (Abcam, ab93652) and a Loricrin antibody (Abcam, ab183646) were added dropwise, the sections were incubated overnight at 4°C, and an HRP secondary antibody (ZSGB-BIO, PV-6001) and a DAB kit (ZSG-BIO, ZLI9017) were added for color development. The sections were re-stained with hematoxylin, cleaned, and sealed and fixed with a neutral resin, and the expression amounts of KRT1 and Loricrin were observed under an optical microscope.
An incidence rate calculation method involves a proportion of animals in each group meeting the above criteria for determining successful modeling, that is, incidence rate = (number of successfully modeled rats/total number of rats in the group)*100%. […]

[3] = Afatinib 50 mg/kg model, 1% ointment on left paw
[4] = Afatinib 50 mg/kg model, 3% ointment on left paw
[5] = Afatinib 50 mg/kg model, 10% ointment on left paw
[6] = Erlotinib 70 mg/kg model, 1% ointment on left paw
[7] = Erlotinib 70 mg/kg model, 3% ointment on left paw
[8] = Erlotinib 70 mg/kg model, 10% ointment on left paw
[9] = Osimertinib 60 mg/kg model, 1% ointment on left paw
[10] = Osimertinib 60 mg/kg model, 3% ointment on left paw
[11] = Osimertinib 60 mg/kg model, 10% ointment on left paw
[12] = Sorafenib 100 mg/kg model, 1% ointment on left paw
[13] = Sorafenib 100 mg/kg model, 3% ointment on left paw
[14] = Sorafenib 100 mg/kg model, 10% ointment on left paw

NC(=O)c1cccnc1 [Nicotinamide, nicotinamide]
expression level of cytokine IL-1β in the skin tissues of the hind limb toes of the mice ([1]; osimertinib model): didn't have a significant impact
infiltration of inflammatory cells [1]: infiltration of inflammatory cells still observed
thickening of the epidermal layer and the stratum corneum in the skin tissues [1]: didn't significantly alleviate
swelling of the toes caused by the modeling drugs [1]: not observed that oral administration of the nicotinamide at 100 mg/kg significantly alleviated the swelling
expression level of cytokine IL-1β in the skin tissues of the hind limb toes of the mice ([1]; sorafenib model): didn't have a significant impact

C=CC(=O)Nc1cc(Nc2nccc(-c3cn(C)c4ccccc34)n2)c(OC)cc1N(C)CCN(C)C [Osimertinib, osimertinib]
KRT1 and Loricrin in tissues ([2]; rat, in vivo): significantly increased
stratum corneum thickness of the paw plantar skin ([2]; rat, in vivo): significantly higher than that of normal rats
cytokine IL-1β in the skin tissues of the hind limb toes of the mice ([1]; modeling drug oral 14 days, vs normal control group, p<0.05): significantly increased
swelling of the hind limb toes of the mice ([1]; modeling drug oral, 14 days: sorafenib 100 mg/kg, osimertinib 10 mg/kg): significant swelling of the hind limb toes of the mice was caused
epidermal layer and the stratum corneum in the skin tissues of the hind limb toes ([1]; modeling drug oral, 14 days: sorafenib, osimertinib, vs normal control group): significantly thickened
skin of the hind limb toes of the mice (appearance) ([1]; modeling for 14 days: sorafenib 100 mg/kg, osimertinib 10 mg/kg oral gavage once daily, vs normal control group): obvious erythema and rhagades

NC(=O)[C@H]1CCCc2c1[nH]c1ccc(Cl)cc21 [Compound of formula (I), (S)-6-chloro-2,3,4,9-tetrahydro-1H-carbazole-carboxamide]
Incidence rate Left paw [2, 3]: 3/12 (25%)
Incidence rate Left paw [2, 4]: 2/12 (17%)
Incidence rate Left paw [2, 5]: 0/12 (0%)
Incidence rate Right paw [2, 3]: 9/12 (75%)
Incidence rate Right paw [2, 4]: 4/12 (33%)
Incidence rate Right paw [2, 5]: 3/12 (25%)
Incidence rate Left paw [2, 6]: 3/12 (25%)
Incidence rate Left paw [2, 7]: 2/12 (17%)
Incidence rate Left paw [2, 8]: 1/12 (8%)
Incidence rate Right paw [2, 6]: 10/12 (83%)
Incidence rate Right paw [2, 7]: 5/12 (42%)
Incidence rate Right paw [2, 8]: 4/12 (33%)
Incidence rate Left paw [2, 9]: 2/12 (17%)
Incidence rate Left paw [2, 10]: 2/12 (17%)
Incidence rate Left paw [2, 11]: 0/12 (0%)
Incidence rate Right paw [2, 9]: 8/12 (67%)
Incidence rate Right paw [2, 10]: 4/12 (33%)
Incidence rate Right paw [2, 11]: 3/12 (25%)
Incidence rate Left paw [2, 12]: 2/12 (17%)
Incidence rate Left paw [2, 13]: 2/12 (17%)
Incidence rate Left paw [2, 14]: 0/12 (0%)
Incidence rate Right paw [2, 12]: 9/12 (75%)
Incidence rate Right paw [2, 13]: 4/12 (33%)
Incidence rate Right paw [2, 14]: 4/12 (33%)
stratum corneum thickness of the paw plantar skin of the modeled rats ([2]; ointment on paw of modeled rats): effectively decrease
incidence rate of hand-foot skin reaction at a drug application site ([2]; ointment, mass content of 1%): significantly decrease
incidence rate of hand-foot skin reaction in all paws of the rats ([2]; ointment, mass content of 3% and 10%): significantly decrease
formation of blisters in the epidermis and subepidermis caused by the modeling drugs ([2]; pathological scoring (FIG. 10)): effectively alleviate
inflammatory cell infiltration in the dermis ([2]; pathological scoring (FIG. 10)): inhibit
skin congestion phenomenon ([2]; pathological scoring (FIG. 10)): significantly alleviate
formation of blisters in the epidermis and subepidermis caused by the modeling drugs ([2]; tissue staining (FIG. 9)): effectively alleviate
inflammatory cell infiltration in the dermis ([2]; tissue staining (FIG. 9)): inhibit
skin congestion phenomenon ([2]; tissue staining (FIG. 9)): significantly alleviate
expression level of cytokine IL-1β in the skin tissues of the hind limb toes of the mice ([1]; osimertinib model): significantly decrease
infiltration of inflammatory cells [1]: no infiltration of inflammatory cells observed
thickening of the epidermal layer and the stratum corneum in the skin tissues [1]: effectively alleviate
swelling of the toes caused by the modeling drugs [1]: effectively alleviate
expression level of cytokine IL-1β in the skin tissues of the hind limb toes of the mice ([1]; sorafenib model): significantly decrease
